Laboratory results reported in patent US9718846B1, “Crystalline polymorphs of benfotiamine, process for preparation and its use thereof” (Shanghai Ri Xin Biotechnolgy Co., Ltd., priority 2012, dated 2017).

Legend:
[1] = Dynamic vapor sorption analysis of hygroscopicity; format: physicochemical; details: RH from 5% to 95%, comparison of forms A, C, D, E
Excerpt: Dynamic vapor sorption analysis was used for measurement of the hygroscopicity of crystalline form A, C, D, and E under the scope of relative humidity (RH) from 5% to 95%.

[2] = Solubility in methanol/dichloromethane mixture; format: physicochemical; details: methanol/dichloromethane mixture (1:3 v/v), organic solvent or mixture; mixture organic solvent of methanol and dichloromethane (volume ratio 1:3)
Method: In 200 μl of a mixture organic solvent of methanol and dichloromethane (volume ratio 1:3) was added 10 mg of the crystalline form E of benfotiamine (solubility 50 mg/ml). Then, 1 ml of the poor solvent of ethanol was slowly added to the mixture along device wall. Precipitated crystals were collected by filtration, followed by evaporated in the air.

Row | Structure (SMILES) | hygroscopicity rank among the four crystalline forms [1] | solubility [2] [mg/mL]
1 | C/C(=C(\CCO[P+]([O-])(O)O)SC(=O)c1ccccc1)N(C=O)Cc1cnc(C)nc1N [crystalline form D, S-benzoylthiamine O-monophosphate] | highest | –
2 | C/C(=C(\CCO[P+]([O-])(O)O)SC(=O)c1ccccc1)N(C=O)Cc1cnc(C)nc1N [crystalline form E, S-benzoylthiamine O-monophosphate] | lowest | 50
